PMC4564450, “Oral and inhaled p38 MAPK inhibitors: effects on inhaled LPS challenge in healthy subjects” (European Journal of Clinical Pharmacology, 2015)

Key:
[1] = test system: IL-6, MPO, MCP-1 and MIP-1β in sputum supernatant; assay: Inhaled LPS challenge: sputum supernatant protein biomarkers; assay type: in vivo, human; conditions: study 3
Procedure: A baseline sputum sample was obtained within 14 days of the first study period when subjects were administered a single dose of randomised treatment. […] Induced sputum was obtained 6 h later to coincide with the maximal inflammatory response caused by inhaled LPS. A washout period of at least 21 days followed, with subjects returning after 14 days of the washout period for induced sputum sampling; this was performed to ensure that the total cell count, total neutrophil count and total macrophage count were within the range of −80 to +100 % of the screening values. […] If these criteria were not met, then up to two repeat visits to obtain sputum were allowed, with at least 4 days between sputum inductions. The next randomised treatment day was scheduled at least 4 days after sputum induction and was identical to the first treatment day.
Sputum was induced using normal saline after inhalation of salbutamol, and processing was performed using dithiothreitol (DTT) as previously described [20]. The supernatants were stored at −80 °C for later analysis, while cells were used to produce cytoslides (Cytospin 4, Shandon, Runcorn, UK) for differential cell counting and immunocytochemistry. Cytoslides for differential cell count were fixed in methanol (Sigma) and then stained with Rapi-Diff® (GCC Diagnostics, Sandyhurst, UK) or Wright-modified Giemsa (Accustatin WG-18, Sigma-Aldrich); a minimum of 400 non-squamous cells were counted and differential cell counts obtained as percentage of total non-squamous cells. Cell viability was analysed by trypan blue exclusion. Cytoslides with % squamous cell counts <20 % were deemed to be of acceptable quality for differential cell counting. Unfixed cytoslides were wrapped in aluminium foil and stored frozen at −80 °C for immunocytochemistry.
In studies 1 and 2, sputum supernatants were analysed for interleukin 6 (IL-6), myeloperoxidase (MPO), monocyte chemotactic protein-1 (MCP-1) and macrophage inflammatory protein-1β (MIP-1 β), using electrochemiluminescent immunoassays (ECLIA) or enzyme-linked immunosorbent assays (ELISA); the manufacturers are listed in the online supplement. In study 3, sputum supernatants were analysed for IL-6, MCP-1 and MIP-1β by the same method.

[2] = test system: sputum neutrophils and macrophages after inhaled LPS; assay: Inhaled LPS challenge in healthy subjects: induced sputum cell counts; assay type: in vivo, human; conditions: study 3
Procedure: Three randomised, double-blind, placebo-controlled crossover studies were performed; the effects of a single dose of active treatment was investigated in all three studies. […] Studies 2 and 3 were conducted at two UK centres: Quintiles Drug Research Unit, London, and Medicines Evaluation Unit, Manchester. […] The studies were performed during the following time periods: study 1, Sep 2006–Mar 2008; study 2, Jan 2011–Dec 2011; and study 3, Jul 2011–Jan 2012. The design of all three studies was similar. A baseline sputum sample was obtained within 14 days of the first study period when subjects were administered a single dose of randomised treatment. […] Induced sputum was obtained 6 h later to coincide with the maximal inflammatory response caused by inhaled LPS. […] This criterion was used to ensure that sputum cell counts after LPS challenge had returned to close to the original baseline values; this was done to reduce data variability between treatment periods. […] For each challenge, a 1-mg vial of lyophilised LPS (Escherichia coli serotype O26:B6, ref. L-2654, Sigma-Aldrich, Dorset, UK) was diluted with 4 mL of 0.9 % w/v sodium chloride. The reconstitution produced a 0.25 mg/mL solution, of which 2 mL was placed into the pre-calibrated dosimeter pot and administered via five inhalations from a breath-activated dosimeter (Mefar dosimeter MB3, Brescia, Italy). Each inhalation was performed over 3 s with a 6-s breath hold. […] Sputum was induced using normal saline after inhalation of salbutamol, and processing was performed using dithiothreitol (DTT) as previously described. The supernatants were stored at −80 °C for later analysis, while cells were used to produce cytoslides (Cytospin 4, Shandon, Runcorn, UK) for differential cell counting and immunocytochemistry. […] Cell viability was analysed by trypan blue exclusion. Cytoslides with % squamous cell counts <20 % were deemed to be of acceptable quality for differential cell counting. Unfixed cytoslides were wrapped in aluminium foil and stored frozen at −80 °C for immunocytochemistry. Sputum neutrophil percentage was the primary endpoint for all three studies. The neutrophil percentage was modelled using a mixed effects analysis of covariance (ANCOVA) model appropriate for a two-period, two-treatment or three-period, three-treatment crossover design. The fixed effects in the model were treatment and period. Subjects were modelled as a random effect. Additionally, the period-specific baseline was modelled as a covariate. This model was used for all sputum inflammatory markers, including the immunohistocytochemistry, where cell counts were log transformed before analyzing the data and percent differentials were not transformed. […] Ninety percent confidence intervals of the difference (non-transformed data) or the ratio (log-transformed data) were constructed based on the ANCOVA model.

[3] = Plasma pharmacokinetics (sparse sampling); assay type: in vivo, human; conditions: study 3, fluticasone 500 μg inhaled
[4] = set-up: method as in PMID 12373268; conditions: single inhaled dose; cited from earlier work
[5] = test system: IL-6, MCP-1, MIP1β, CC16, fibrinogen and CRP levels in plasma; assay: Inhaled LPS challenge: plasma protein biomarkers; assay type: in vivo, human; conditions: study 3
Procedure: Blood samples were obtained in studies 2 and 3 to obtain plasma measurements of IL-6, MCP-1, MIP1β, CC16, fibrinogen and CRP levels; pre-dose and 6 h post-LPS samples were used for statistical analysis. This coincided with the timings of sputum measurements of inflammation biomarkers.
Systemic biomarkers were analysed using a similar mixed effects model; these models also adjusted for pre-dose baseline values, which were obtained 24 h prior to LPS challenge in study 2 and 30 min prior to LPS challenge in study 3.

[6] = oral, 12-week treatment; cited from earlier work
[7] = test system: airway inflammation after LPS challenge; set-up: method as in PMID 17045826; conditions: oral, 6-day treatment; cited from earlier work
[8] = fluticasone 500 μg inhaled, post LPS
[9] = fluticasone propionate 500 μg inhaled
[10] = fluticasone 500 μg inhaled, post LPS, ANCOVA model mean
[11] = fluticasone 500 μg inhaled, 6 hrs post LPS

Structure (SMILES): CCC(=O)O[C@]1(C(=O)SCF)[C@H](C)C[C@H]2[C@@H]3C[C@H](F)C4=CC(=O)C=C[C@]4(C)[C@@]3(F)[C@@H](O)C[C@@]21C [fluticasone propionate, reference compound]
- Sputum IL-6, mean [1, 8]: 200.97 pg/mL
- Sputum MCP-1, mean [1, 8]: 133.79 pg/mL
- Sputum MIP-1β, mean [1, 8]: 1157.87 pg/mL
- sputum cytokine measurements compared to placebo [1, 9]: no effects
- Mean (SD) sputum neutrophil percentage ([2]; fluticasone 500 μg inhaled single dose, 6 h post-LPS): 70.0 (12.9) %
- Macrophage Differential in sputum [2, 10]: 27.53%
- Total Cell Count in sputum [2, 10]: 3.02e+06 g⁻¹
- Total Macrophage Count in sputum [2, 10]: 820000 g⁻¹
- Total Neutrophil Count in sputum [2, 10]: 2.04e+06 g⁻¹
- sputum neutrophil percentage post-LPS challenge compared to placebo ([2]; fluticasone propionate 500 μg inhaled single dose, p = 0.55): not changed significantly
- Total Cell Count in sputum, Ratio of Means active/placebo ([2]; post LPS): 0.90
- Total Macrophage Count in sputum, Ratio of Means active/placebo ([2]; post LPS): 0.93
- Total Neutrophil Count in sputum, Ratio of Means active/placebo ([2]; post LPS): no effects
- Macrophage Differential in sputum, difference between the active treatment mean and the placebo mean ([2]; post LPS, footnote: difference, not ratio): 2.04%
- Total Neutrophil Count in sputum, Ratio of Means active/placebo ([2]; post LPS, listed as Fluticasone): 0.66
- Plasma concentration ([3]; 1.5 h): 56.0 (29.4) pg/mL
- Plasma concentration ([3]; 6.5 h): 37.31 (15.1) pg/mL
- effects of bronchial challenges in asthma [4]: significantly inhibit
- Plasma CC16, mean [5, 11]: 10.51 ng/mL
- Plasma CRP, mean [5, 11]: 708.10 ng/mL
- Plasma Fibrinogen, mean [5, 11]: 2058.00 µg/mL
- Plasma IL-6, mean [5, 11]: 23.30 pg/mL
- Plasma MCP-1, mean [5, 11]: 401.70 pg/mL
- Plasma MIP-1β, mean [5, 11]: 76.95 pg/mL
- systemic biomarkers compared to placebo [5, 9]: no effect

Structure (SMILES): Cc1c(F)cc(C(=O)NC2CC2)cc1-c1ccc(C(=O)NCC(C)(C)C)cn1 [losmapimod, reference compound]
- sputum neutrophil counts in COPD patients [6]: failed to reduce

Structure (SMILES): C[C@]12C=CC(=O)C=C1CC[C@@H]1[C@@H]2[C@@H](O)C[C@@]2(C)[C@H]1CC[C@]2(O)C(=O)CO [prednisolone]
- airway inflammation in an LPS challenge study [7]: no effect
- plasma CRP levels in an LPS challenge study [7]: suppressed
